Patent US12077503B2, “Substituted cyclic amides and their use as herbicides” (FMC CORPORATION, priority 2015, dated 2024)

Assays:
Type in all cases: in vivo
[1] = system: redroot pigweed (Amaranthus retroflexus); assay: Test G Post-Emergence Protocol; conditions: Amaranthus retroflexus, post-emergence, 312 h, read-out: Pigweed, Redroot damage rating
Summary of the method: (§1)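 A glasshouse post-emergence test: 8-day-old plants sprayed at 15.625, 62.5 or 250 g/ha, then grown at 24/16 °C day/night with 14 h light and 65% humidity. Damage rated 13 days later, 0–100.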

corn (Zea mays) [2] = assay: Test G Post-Emergence Protocol; conditions: Zea mays, post-emergence, 312 h, read-out: Corn damage rating
Summary of the method: as §1

[3] = system: ivy-leaved morning glory (Ipomoea hederacea); assay: Test G Post-Emergence Protocol; conditions: Ipomoea, post-emergence, 312 h, read-out: Morningglory, Ivy-leaved damage rating
Summary of the method: as §1

[4] = system: velvetleaf (Abutilon theophrasti); assay: Test G Post-Emergence Protocol; conditions: Abutilon theophrasti, post-emergence, 312 h, read-out: Velvetleaf damage rating
Summary of the method: as §1

[5] = system: barnyardgrass (Echinochloa crus-galli); assay: Test G Post-Emergence Protocol; conditions: Echinochloa crus-galli, post-emergence, 312 h, read-out: Barnyardgrass damage rating
Summary of the method: as §1

[6] = system: giant foxtail (Setaria faberi); assay: Test G Post-Emergence Protocol; conditions: Setaria faberi, post-emergence, 312 h, read-out: Foxtail, Giant damage rating
Summary of the method: as §1

[7] = system: redroot pigweed (Amaranthus retroflexus); assay: Test G Pre-Emergence Protocol; conditions: Amaranthus retroflexus, pre-emergence, 312 h, evaluated after 13 days
Summary of the method: (§2)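 Under a 24/16° C day/night regime with 14 h light and 65% humidity, sown pots were sprayed after one day with compound (15.625, 62.5 or 250 g/ha; 50:50 acetone/water, 0.5% Tween 20). Damage was assessed visually 13 days later, 0 to 100.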

corn (Zea mays) [8] = assay: Test G Pre-Emergence Protocol; conditions: Zea mays, pre-emergence, 312 h, evaluated after 13 days
Summary of the method: as §2

[9] = system: ivy-leaved morning glory (Ipomoea hederacea); assay: Test G Pre-Emergence Protocol; conditions: Ipomoea, pre-emergence, 312 h, evaluated after 13 days
Summary of the method: as §2

[10] = system: velvetleaf (Abutilon theophrasti); assay: Test G Pre-Emergence Protocol; conditions: Abutilon theophrasti, pre-emergence, 312 h, evaluated after 13 days
Summary of the method: as §2

[11] = system: barnyardgrass (Echinochloa crus-galli); assay: Test G Pre-Emergence Protocol; conditions: Echinochloa crus-galli, pre-emergence, 312 h, evaluated after 13 days
Summary of the method: as §2

[12] = system: giant foxtail (Setaria faberi); assay: Test G Pre-Emergence Protocol; conditions: Setaria faberi, pre-emergence, 312 h, evaluated after 13 days
Summary of the method: as §2

[13] = 15.625 g ai/ha, evaluated after 13 days (100=total damage to plant; 0=no damage to plant)
[14] = 62.5 g ai/ha, evaluated after 13 days, 100=total damage to plant, 0=no damage to plant
[15] = 250 g ai/ha, evaluated after 13 days, 100=total damage to plant, 0=no damage to plant

CN1C[C@H](c2ccc(C(F)(F)F)cc2)[C@@H](C(=O)Nc2ccc3ncccc3n2)C1=O (racemic) [Compound 1833]
0%: pest or weed control at 15.625 g/ha [1, 13] | pest or weed control at 62.5 g/ha [1, 14] | pest or weed control at 250 g/ha [1, 15] | plant injury at 15.625 g/ha (corn (Zea mays) [2]; [13]) | plant injury at 62.5 g/ha (corn (Zea mays) [2]; [14]) | plant injury at 250 g/ha (corn (Zea mays) [2]; [15]) | pest or weed control at 15.625 g/ha [3, 13] | pest or weed control at 62.5 g/ha [3, 14] | pest or weed control at 250 g/ha [3, 15] | pest or weed control at 15.625 g/ha [4, 13] | pest or weed control at 62.5 g/ha [4, 14] | pest or weed control at 250 g/ha [4, 15] | pest or weed control at 15.625 g/ha [5, 13] | pest or weed control at 62.5 g/ha [5, 14] | pest or weed control at 250 g/ha [5, 15] | pest or weed control at 15.625 g/ha [6, 13] | pest or weed control at 62.5 g/ha [6, 14] | pest or weed control at 250 g/ha [6, 15] | pest or weed control at 15.625 g/ha ([7]; 15.625 g ai/ha, read-out: Pigweed, Redroot damage rating (100=total damage to plant; 0=no damage to plant)) | pest or weed control at 62.5 g/ha ([7]; 62.5 g ai/ha, 100=total damage to plant, 0=no damage to plant, read-out: Pigweed, Redroot damage rating) | pest or weed control at 250 g/ha ([7]; 250 g ai/ha, read-out: Pigweed, Redroot damage rating (100=total damage to plant; 0=no damage to plant)) | plant injury at 15.625 g/ha (corn (Zea mays) [8]; 15.625 g ai/ha, read-out: Corn damage rating (100=total damage to plant; 0=no damage to plant)) | plant injury at 62.5 g/ha (corn (Zea mays) [8]; 62.5 g ai/ha, 100=total damage to plant, 0=no damage to plant, read-out: Corn damage rating) | plant injury at 250 g/ha (corn (Zea mays) [8]; 250 g ai/ha, read-out: Corn damage rating (100=total damage to plant; 0=no damage to plant)) | pest or weed control at 15.625 g/ha ([9]; 15.625 g ai/ha, read-out: Morningglory, Ivy-leaved damage rating (100=total damage to plant; 0=no damage to plant)) | pest or weed control at 62.5 g/ha ([9]; 62.5 g ai/ha, 100=total damage to plant, 0=no damage to plant, read-out: Morningglory, Ivy-leaved damage rating) | pest or weed control at 250 g/ha ([9]; 250 g ai/ha, read-out: Morningglory, Ivy-leaved damage rating (100=total damage to plant; 0=no damage to plant)) | pest or weed control at 15.625 g/ha ([10]; 15.625 g ai/ha, read-out: Velvetleaf damage rating (100=total damage to plant; 0=no damage to plant)) | pest or weed control at 62.5 g/ha ([10]; 62.5 g ai/ha, 100=total damage to plant, 0=no damage to plant, read-out: Velvetleaf damage rating) | pest or weed control at 250 g/ha ([10]; 250 g ai/ha, read-out: Velvetleaf damage rating (100=total damage to plant; 0=no damage to plant)) | pest or weed control at 15.625 g/ha ([11]; 15.625 g ai/ha, read-out: Barnyardgrass damage rating (100=total damage to plant; 0=no damage to plant)) | pest or weed control at 62.5 g/ha ([11]; 62.5 g ai/ha, 100=total damage to plant, 0=no damage to plant, read-out: Barnyardgrass damage rating) | pest or weed control at 250 g/ha ([11]; 250 g ai/ha, read-out: Barnyardgrass damage rating (100=total damage to plant; 0=no damage to plant)) | pest or weed control at 15.625 g/ha ([12]; 15.625 g ai/ha, read-out: Foxtail, Giant damage rating (100=total damage to plant; 0=no damage to plant)) | pest or weed control at 62.5 g/ha ([12]; 62.5 g ai/ha, 100=total damage to plant, 0=no damage to plant, read-out: Foxtail, Giant damage rating) | pest or weed control at 250 g/ha ([12]; 250 g ai/ha, read-out: Foxtail, Giant damage rating (100=total damage to plant; 0=no damage to plant))
